# Assay results as given in ChEMBL document CHEMBL3525952, “A Baeyer-Villiger oxidation specifically catalyzed by human flavin-containing monooxygenase 5” (Drug Metab Dispos, 2011).
# What was measured:
# [1] = biological target: T1, Flavin-containing monooxygenase 1 (Homo sapiens, UniProt Q01740); test: Drug metabolism assessed as human recombinant FMO1-mediated ER-879123 formation in presence NADH at 10 uM after 60 mins by LC-MS/MS method; assay type: ADME; conditions: recombinant enzyme, 1 h
# T1 sequence (Q01740 whole entry): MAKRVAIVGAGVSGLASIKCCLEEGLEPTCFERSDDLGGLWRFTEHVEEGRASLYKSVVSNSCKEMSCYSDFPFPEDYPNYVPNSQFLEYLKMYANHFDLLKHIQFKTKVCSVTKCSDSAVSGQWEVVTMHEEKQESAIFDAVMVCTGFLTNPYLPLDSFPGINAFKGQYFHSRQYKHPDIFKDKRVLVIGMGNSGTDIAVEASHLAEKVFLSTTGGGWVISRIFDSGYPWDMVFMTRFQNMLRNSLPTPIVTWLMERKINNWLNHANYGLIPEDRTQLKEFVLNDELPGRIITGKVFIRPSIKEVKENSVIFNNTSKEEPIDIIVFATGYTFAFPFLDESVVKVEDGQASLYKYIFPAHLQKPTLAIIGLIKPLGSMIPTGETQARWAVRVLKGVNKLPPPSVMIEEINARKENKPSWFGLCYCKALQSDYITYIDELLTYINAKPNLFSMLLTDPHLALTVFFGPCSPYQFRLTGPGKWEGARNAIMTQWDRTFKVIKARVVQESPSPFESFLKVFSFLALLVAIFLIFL
# [2] = biological target: T2, Flavin-containing monooxygenase 5 (Homo sapiens, UniProt P49326); test: Drug metabolism assessed as human recombinant FMO5-mediated ER-879123 formation in presence NADH at 10 uM after 60 mins by LC-MS/MS method; assay type: ADME; conditions: recombinant enzyme, 1 h
# T2 sequence (P49326 whole entry): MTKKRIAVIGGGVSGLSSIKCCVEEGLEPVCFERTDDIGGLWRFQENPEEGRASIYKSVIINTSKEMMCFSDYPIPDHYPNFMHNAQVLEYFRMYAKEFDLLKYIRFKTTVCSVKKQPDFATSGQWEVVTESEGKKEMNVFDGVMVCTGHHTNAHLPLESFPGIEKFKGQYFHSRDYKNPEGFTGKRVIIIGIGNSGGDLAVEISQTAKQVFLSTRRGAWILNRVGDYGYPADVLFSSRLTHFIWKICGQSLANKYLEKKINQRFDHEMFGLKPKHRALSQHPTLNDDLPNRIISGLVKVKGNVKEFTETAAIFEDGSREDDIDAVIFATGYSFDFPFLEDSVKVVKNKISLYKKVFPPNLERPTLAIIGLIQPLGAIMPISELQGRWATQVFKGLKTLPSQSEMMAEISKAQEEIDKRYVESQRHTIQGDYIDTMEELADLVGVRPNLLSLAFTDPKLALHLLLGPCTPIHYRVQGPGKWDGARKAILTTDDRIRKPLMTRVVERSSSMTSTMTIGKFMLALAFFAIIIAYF
# Liver microsome [3] = test: Drug metabolism in human liver microsomes assessed as ER-879123 formation at 10 uM after 60 mins in presence of NADH by LC-MS/MS method; assay type: ADME; conditions: 1 h
# Liver microsome [4] = test: Drug metabolism in dog liver microsomes assessed as ER-879123 formation at 10 uM after 60 mins in presence of NADH and carboxylesterase inhibitor BNPP by LC-MS/MS method; assay type: ADME, Canis lupus familiaris; conditions: 1 h
# Liver microsome [5] = test: Drug metabolism in 50 degC treated dog liver microsomes assessed as ER-879123 formation at 10 uM after 60 mins in absence of NAD+ by LC-MS/MS method; assay type: ADME, Canis lupus familiaris; conditions: 1 h
# [6] = biological target: T3, Flavin-containing monooxygenase 3 (Homo sapiens, UniProt P31513); test: Drug metabolism assessed as human recombinant FMO3-mediated ER-879123 formation in presence NADH at 10 uM after 60 mins by LC-MS/MS method; assay type: ADME; conditions: recombinant enzyme, 1 h
# T3 sequence (P31513 whole entry): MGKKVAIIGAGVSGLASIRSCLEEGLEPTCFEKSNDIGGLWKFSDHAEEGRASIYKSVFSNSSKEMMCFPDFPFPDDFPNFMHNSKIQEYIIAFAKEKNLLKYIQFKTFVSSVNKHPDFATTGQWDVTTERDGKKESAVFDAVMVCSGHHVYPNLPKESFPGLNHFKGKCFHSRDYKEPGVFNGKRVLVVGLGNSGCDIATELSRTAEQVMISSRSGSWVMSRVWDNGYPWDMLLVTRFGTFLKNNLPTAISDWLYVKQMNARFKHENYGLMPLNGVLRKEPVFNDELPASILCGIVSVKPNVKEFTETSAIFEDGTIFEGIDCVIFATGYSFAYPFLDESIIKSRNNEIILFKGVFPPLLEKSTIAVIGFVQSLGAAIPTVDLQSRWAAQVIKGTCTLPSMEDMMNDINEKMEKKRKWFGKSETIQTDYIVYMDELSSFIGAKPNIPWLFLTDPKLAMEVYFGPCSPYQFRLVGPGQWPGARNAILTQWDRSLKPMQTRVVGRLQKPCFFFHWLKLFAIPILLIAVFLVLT
# Liver microsome [7] = test: Drug metabolism in human liver microsomes assessed as ER-879123 formation at 10 uM after 60 mins in presence of NADH and FMO1 and FMO3 substrate/inhibitor methimazole by LC-MS/MS method; assay type: ADME; conditions: 1 h
# Liver microsome [8] = test: Drug metabolism in dog liver microsomes assessed as ER-879123 formation at 10 uM after 60 mins in presence of NADH by LC-MS/MS method; assay type: ADME, Canis lupus familiaris; conditions: 1 h
# Liver microsome [9] = test: Drug metabolism in human liver microsomes assessed as ER-879123 formation at 10 uM after 60 mins in presence of NADH and carboxylesterase inhibitor BNPP by LC-MS/MS method; assay type: ADME; conditions: 1 h
# [10] = biological target: T3, Flavin-containing monooxygenase 3; test: Drug metabolism assessed as human recombinant FMO3-mediated ER-879123 formation at 10 uM after 60 mins by LC-MS/MS method in presence of NADPH; assay type: ADME; conditions: recombinant enzyme, 1 h
# Liver microsome [11] = test: Drug metabolism in dog liver microsomes assessed as ER-879123 formation at 10 uM after 60 mins in presence of NADH and FMO1 and FMO3 substrate/inhibitor methimazole by LC-MS/MS method; assay type: ADME, Canis lupus familiaris; conditions: 1 h
# Liver microsome [12] = test: Drug metabolism in 50 degC treated human liver microsomes assessed as ER-879123 formation at 10 uM after 60 mins in absence of NAD+ by LC-MS/MS method; assay type: ADME; conditions: 1 h
# [13] = biological target: T1, Flavin-containing monooxygenase 1; test: Drug metabolism assessed as human recombinant FMO1-mediated ER-879123 formation at 10 uM after 60 mins by LC-MS/MS method in presence of NADPH; assay type: ADME; conditions: recombinant enzyme, 1 h
# [14] = biological target: T2, Flavin-containing monooxygenase 5; test: Drug metabolism assessed as human recombinant FMO5-mediated ER-879123 formation at 10 uM after 60 mins by LC-MS/MS method in presence of NADPH; assay type: ADME; conditions: recombinant enzyme, 1 h
structure (smiles),measurement,setting,value
O=C1CCN(Cc2ccc3c(c2)-c2n[nH]c(=O)c4cccc(c24)O3)CC1,Drug metabolism,[1],metabolite_not_detected
same,Drug metabolism,[2],metabolite_detected
same,Drug metabolism,Liver microsome [3],metabolite_detected
same,Drug metabolism,Liver microsome [4],metabolite_not_detected
same,Drug metabolism,Liver microsome [5],metabolite_not_detected
same,Drug metabolism,[6],metabolite_not_detected
same,Drug metabolism,Liver microsome [7],metabolite_detected
same,Drug metabolism,Liver microsome [8],metabolite_detected
same,Drug metabolism,Liver microsome [9],metabolite_not_detected
same,Drug metabolism,[10],metabolite_not_detected
same,Drug metabolism,Liver microsome [11],metabolite_detected
same,Drug metabolism,Liver microsome [12],metabolite_not_detected
same,Drug metabolism,[13],metabolite_not_detected
same,Drug metabolism,[14],metabolite_detected
